We go through six compounds from US20160193206A1, “BET-PROTEIN-INHIBITING DIHYDROPYRIDOPYRAZINONES” (BAYER PHARMA AKTIENGESELLSCHAFT, priority 2012, published 2016).

Usually IC50 stands for the concentration needed to halve the response being measured.

In assay [1] the target is T1, BRD4 bromo domain 1 [BRD4(1)] (Homo sapiens, UniProt O60885).
T1 construct: N-terminally His6-tagged BRD4(1) (amino acids 67-152); made in house; host or cells: E. coli
The experiment in a line: BRD4(1)/acetylated peptide H4 binding assay (TR-FRET). Conditions: inhibition of interaction between His6-tagged BRD4(1) (amino acids 67-152) and acetylated histone H4 peptide. The method, boiled down:
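IC50 came from a 4-parameter fit of the 665/620 nm emission ratio, normalised to DMSO and no-protein controls. His6-tagged BRD4(1) residues 67-152 (typically 10 nM final) was preincubated 10 min with compound (0.1 nM to 20 μM, duplicates), then exposed to Ac-H4-biotin peptide at 22 °C for 1 h and 4 °C for at least 3 h.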
On the technique in general: TR-FRET usually uses a lanthanide donor and a delayed reading to cut background.

Assay [2] has as its system MOLM-13 cell line. The experiment in a line: MOLM-13 cell proliferation assay (alamarBlue). The class given is cell-based. Conditions: Homo sapiens, inhibition of proliferation of MOLM-13 cells (acute myeloid leukaemia), 96 hours incubation. The method, boiled down: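 MOLM-13 (human AML) cells were treated with compound dilutions for 96 h at 37 °C after overnight plating, and viability was read by alamarBlue fluorescence (ex 530/em 590 nm). Pre-treatment readings were subtracted from end-point readings, and IC50 was calculated relative to buffer-only controls.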

In assay [3] the target is T2, BRD4 bromo domain 2 [BRD4(2)] (Homo sapiens, UniProt O60885).
T2 construct: N-terminally His6-tagged BRD4(2) (amino acids 357-445); made in house; host or cells: E. coli
The experiment in a line: BRD4(2)/acetylated peptide H4 binding assay (TR-FRET). The following applies: inhibition of interaction between His6-tagged BRD4(2) (amino acids 357-445) and acetylated histone H4 peptide. Put shortly:
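Compounds (0.1 nM to 20 μM, 11 points, duplicates) preincubated 10 min at 22 °C with 100 nM His6-tagged BRD4(2) residues 357-445, then Ac-H4-biotin peptide added; incubated 1 h at 22 °C and 3 h-overnight at 4 °C. Eu/XL665 emission ratio normalised to DMSO and no-protein controls; 4-parameter IC50.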

On to `CC(C)N1c2nc(Nc3ccc(S(=O)(=O)N4CCN(C)CC4)cc3)ccc2N(C)C(=O)[C@H]1C` [Example 99, (3R)-1,3-Dimethyl-6-({4-[(4-methylpiperazin-1-yl)sulphonyl]phenyl}amino)-4-(propan-2-yl)-3,4-dihydropyrido[2,3-b]pyrazin-2(1H)-one], for which the half-inhibitory concentration (IC50) was 0.145 µM in assay [1], 0.316 µM in assay [2] and 0.104 µM in assay [3].
The like results for `CC(C)N1c2nc(Nc3ccc(S(=O)(=O)N(C)C)cc3)ccc2N(C)C(=O)[C@H]1C` [Example 100, 4-{[(3R)-1,3-Dimethyl-2-oxo-4-(propan-2-yl)-1,2,3,4-tetrahydropyrido[2,3-b]pyrazin-6-yl]amino}-N,N-dimethylbenzenesulphon-amide] were, in that order, 0.156 µM, 0.336 µM and 0.071 µM.
Take `CC(C)N1c2nc(Nc3ccc(S(=O)(=O)N4CCOCC4)cc3)ccc2N(C)C(=O)[C@H]1C` [Example 101, (3R)-1,3-Dimethyl-6-{[4-(morpholin-4-ylsulphonyl)phenyl]amino}-4-(propan-2-yl)-3,4-dihydropyrido[2,3-b]pyrazin-2(1H)-one]: the IC50 turned out to be 0.134 µM in assay [1], 0.226 µM in assay [2] and 0.105 µM in assay [3].
Take `CC(C)N1CCN(S(=O)(=O)c2ccc(Nc3ccc4c(n3)N(C3CCCC3)[C@H](C)C(=O)N4C)cc2)CC1` [Example 102, (3R)-4-Cyclopentyl-1,3-dimethyl-6-[(4-{[4-(propan-2-yl)piperazin-1-yl]sulphonyl}phenyl)amino]-3,4-dihydropyrido[2,3-b]pyrazin-2(1H)-one]: the IC50 in assay [1] worked out at 0.1 µM; in assay [2], 0.214 µM; in assay [3], 0.09 µM.
In the same order, the values of `C[C@@H]1C(=O)N(C)c2ccc(Nc3ccc(S(=O)(=O)N(C)C)cc3)nc2N1C1CCCC1` [Example 103, 4-{[(3R)-4-Cyclopentyl-1,3-dimethyl-2-oxo-1,2,3,4-tetrahydropyrido[2,3-b]pyrazin-6-yl]amino}-N,N-dimethylbenzenesulphonamide] are 0.078 µM, 0.177 µM and 0.051 µM.
In the same order, the values of `CC1C(=O)N(C)c2ccc(Nc3ccc(S(=O)(=O)NC4CCN(C)CC4)cc3)nc2N1c1ccccc1` (stereo not drawn) [Example 107, 4-[(1,3-Dimethyl-2-oxo-4-phenyl-1,2,3,4-tetrahydropyrido[2,3-b]pyrazin-6-yl)amino]-N-(1-methylpiperidin-4-yl)benzenesulphonamide] are 0.201 µM, 0.255 µM and 0.241 µM.
